The values below come from patent US5100914A, “Arylalkoxycoumarins” (BASF Aktiengesellschaft, priority 1988, dated 1992).

A value given as a limit tells only on which side of the number the result lay.

The conditions of test [1]: J. Agric. Food Chem. 34 (2), 185-188; cited from earlier work.
For another test, the target named is T1, MAO B (Rattus norvegicus, UniProt P19643).
T1 construct: carried out in dilute rat brain homogenate; from tissue; host or cells: rat brain homogenate
T1 sequence (P19643 1-520): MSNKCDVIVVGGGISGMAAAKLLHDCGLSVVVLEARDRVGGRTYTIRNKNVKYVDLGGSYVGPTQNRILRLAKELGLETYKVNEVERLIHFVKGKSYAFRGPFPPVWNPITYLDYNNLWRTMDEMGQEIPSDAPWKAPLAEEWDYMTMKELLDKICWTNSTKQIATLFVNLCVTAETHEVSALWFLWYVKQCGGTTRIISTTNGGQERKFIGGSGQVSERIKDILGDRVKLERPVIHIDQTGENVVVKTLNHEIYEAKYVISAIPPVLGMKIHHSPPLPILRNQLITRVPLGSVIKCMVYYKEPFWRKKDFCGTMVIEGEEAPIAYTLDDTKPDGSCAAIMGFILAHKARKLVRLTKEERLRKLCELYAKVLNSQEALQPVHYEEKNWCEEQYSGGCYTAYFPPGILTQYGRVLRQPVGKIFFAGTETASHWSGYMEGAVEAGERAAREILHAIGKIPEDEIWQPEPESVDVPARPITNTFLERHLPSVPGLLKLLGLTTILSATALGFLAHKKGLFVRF
In words: determination of monoaminooxidase B inhibition in dilute rat brain homogenate. The conditions noted are these: 20 min; for IC50: 14C-phenylethylamine or 14C-tryptamine 0.4 μmol/l, 37° C., logit-log regression, read-out: IC50 MAO B (mean inhibitory concentration); for MAO B selectivity (IC50 MAO A / IC50 MAO B): selectivity ratio from the two IC50 values. It counts as biochemical. As to the method:
(§1) The MAO-inhibiting activity of the novel compounds can be determined using standard methods. […] This mixture was incubated for 20 minutes at 37° C. […] The blank value was determined in similar mixtures with an incubation time of t =0 min.
(§2) From the inhibitory values determined at the various inhibitor concentrations against the controls, the mean inhibitory concentration (IC50) was calculated by linear regression following logit-log transformation.

The target of another test is T2, MAO A (Rattus norvegicus, UniProt P21396).
T2 construct: carried out in dilute rat brain homogenate; from tissue; host or cells: rat brain homogenate
T2 sequence (P21396 1-526): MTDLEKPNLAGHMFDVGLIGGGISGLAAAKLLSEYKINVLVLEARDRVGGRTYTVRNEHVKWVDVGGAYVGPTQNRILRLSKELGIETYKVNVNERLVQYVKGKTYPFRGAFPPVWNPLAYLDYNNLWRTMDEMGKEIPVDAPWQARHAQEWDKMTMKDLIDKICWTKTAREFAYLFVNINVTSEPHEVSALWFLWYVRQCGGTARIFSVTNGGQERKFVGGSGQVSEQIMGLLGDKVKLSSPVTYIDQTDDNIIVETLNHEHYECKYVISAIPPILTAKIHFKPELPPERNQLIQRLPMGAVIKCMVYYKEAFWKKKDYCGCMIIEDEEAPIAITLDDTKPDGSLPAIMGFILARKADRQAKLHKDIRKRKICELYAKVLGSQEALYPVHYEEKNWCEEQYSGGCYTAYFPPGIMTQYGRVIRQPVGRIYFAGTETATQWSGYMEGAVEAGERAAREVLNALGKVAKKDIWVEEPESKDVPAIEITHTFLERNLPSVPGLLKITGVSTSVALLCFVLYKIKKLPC
In words: determination of monoaminooxidase A inhibition in dilute rat brain homogenate. It counts as biochemical. The conditions noted are these: 14C-phenylethylamine or 14C-tryptamine 0.4 μmol/l, 20 min, 37° C., logit-log regression, read-out: IC50 MAO A (mean inhibitory concentration). As to the method: as §1, §2

For `Cc1cc(=O)oc2cc(OCc3c(F)c(F)c(F)c(F)c3F)ccc12` [7-pentafluorophenylmethoxy-4-methylcoumarin], the fungicidal activity result in test [1] was “has fungicidal activity”.
Consider `Cc1c(C)c2ccc(OCc3ccc4ccccc4c3)cc2oc1=O` [Example 4, 3,4-Dimethyl-7-(2-naphthyl)-methoxycoumarin], for which, on MAO B, the IC50 worked out at 11 nM and the “MAO B selectivity (IC50 MAO A / IC50 MAO B)” value was more than 900. The IC50 on MAO A was more than 10000 nM.
As to `Cc1ccc(C)c(COc2ccc3c(C)c(C)c(=O)oc3c2)c1` [Example 10, 3,4-Dimethyl-7-(2,5-dimethylphenyl)-methoxycoumarin], at MAO B, the IC50 was found to be 3.7 nM and the “MAO B selectivity (IC50 MAO A / IC50 MAO B)” value was more than 2700. The IC50 at MAO A is more than 10000 nM.
For `CCc1cc2c(C)c(C)c(=O)oc2cc1OCCc1ccccc1` [Example 23, 6-Ethyl-3,4-dimethyl-7-(2-phenyl)-ethoxycoumarin] the same measures were 13 nM, more than 770 and more than 10000 nM.
Take `CC(C)c1ccc(COc2ccc3ccc(=O)oc3c2)cc1` [Example 26, 7-(4-Isopropylphenyl)-methoxycoumarin]: the results for the IC50 at MAO B and at MAO A were 1.8 nM and more than 10000 nM, respectively. In addition, at MAO B, the “MAO B selectivity (IC50 MAO A / IC50 MAO B)” value was more than 5600.
The matching figures for `Cc1cc(=O)oc2cc(OCc3ccc(C(C)C)cc3)ccc12` [Example 27, 4-Methyl-7-(4-isopropylphenyl)-methoxycoumarin]: 4.7 nM, more than 10000 nM and more than 2100.
The matching figures for `Cc1cc2ccc(OCc3ccc(C(C)C)cc3)cc2oc1=O` [Example 28, 3-Methyl-7-(4-isopropylphenyl)-methoxycoumarin]: 2.8 nM, more than 10000 nM and more than 3600.
As for `Cc1c(Cl)c(=O)oc2cc(OCc3ccc(C(C)C)cc3)ccc12` [Example 33, 3-Chloro-4-methyl-7-(4-isopropylphenyl)-methoxycoumarin], the IC50 on MAO B was 4.3 nM; at MAO A, more than 10000 nM. For the same molecule, on MAO B, the “MAO B selectivity (IC50 MAO A / IC50 MAO B)” value is more than 2400.
The matching figures for `Cc1c(C)c2ccc(OCCCc3ccccc3)cc2oc1=O` [Example 35, 3,4-Dimethyl-7-(3-phenylpropoxy)-coumarin]: 4.2 nM, 1200 nM and 280.
`Cc1c(C)c2cc(Cl)c(OCc3ccc(C(C)C)cc3)cc2oc1=O` [Example 38, 6-Chloro-3,4-dimethyl-7-(4-isopropylphenyl)-methoxycoumarin]: on MAO B, the IC50 was found to be 31 nM and the “MAO B selectivity (IC50 MAO A / IC50 MAO B)” value is more than 320. The IC50 on MAO A is more than 10000 nM.
